Like-named read-outs stand apart in the source and are kept apart here. One block for each compound: values may come before it.
Experiments:
[1] = biological target: Partially purified HDAC enzyme (liver prep); test: HDAC activity assay (MAL deacetylation, HPLC) with partially purified liver HDAC; type: biochemical, rat
Excerpt: The activity of compounds as inhibitors of histone deacetylase was investigated using a modified procedure based on a rapid in vitro HDAC activity assay (HDAC mediated deacetylation of an Ω-acetylated lysine (MAL)) as described by Hoffman et al in Nucl. Acids. Res. 27 2057-2058 (1999).
The HDAC substrate N-(-4-methyl-7-coumarinyl)-N-α-(tert-butyloxy-carbonyl)-N-Ω abbreviated as MAL was synthesised as described (Hoffman et al 1999). HDAC inhibitors and substrate (MAL) were made up in Hepes buffer (50 mM, pH 7.4). Partially purified HDAC enzyme (liver prep, 100 μL), HDAC inhibitor or Hepes buffer (100 μl), substrate (MAL, 100 μL 5 μg/mL) and assay buffer (100 μL, tris-HCl (10 mM), NaCl (10 mM), MgCl2 (15 mM), EGTA (0.1 mM), 10% (v/v) glycerol, and mercaptoethanol (0.007%)) were incubated at 37° C. for 60 minutes. The reaction was terminated with 100 μl acetonitrile, and MAL and the deacetylated product (ML) were determined in the supernatant.
(§1) Chromatographic separation of MAL and ML was carried out using a 15 cm Apex ODS […] column with acetonitrile/distilled water (40:60), 2% trifluoracetic acid (TFA) v/v mobile phase at a flow rate of 1.2 ml/minute. MAL and ML were quantified by fluorescence detection at excitation/emission wavelengths of 330/395 nm.
(§2) The activity of each inhibitor was assessed at a minimum of 5 non-zero concentrations. MAL and ML peak heights were used to derive the percentage MAL in the mixture as the ration of MAL: MAL+ML.
HDAC inhibitory activity against cell-free HDACs isolated from rat liver was determined using the HPLC method.

[2] = test system: Cell-free (CEM cells) HDAC; test: Cell-free (CEM cells) HDAC inhibitory activity, fluorescent commercial kit (Upstate Cell Signaling); type: biochemical
Excerpt: HDAC inhibitory activity has also been determined using a fluorescent commercial kit method (Upstate Cell Signaling).

[3] = test system: acetylated histone H3 in MCF-7 cells; test: Histone H3 acetylation in MCF7 cells (protein blot); type: cell-based; conditions: for histone H3 acetylation with time: FIG. 5; for change in histone H3 acetylation: 2 hour exposure to increasing concentrations, FIG. 4
Protocol: The effect of the compounds on the acetylation of histone H3 was investigated in MCF-7 cells. Briefly cells were treated with a range of concentration of specific inhibitor or different exposure durations. Cells were then lysed and the proteins resolved by polyacrylamide electrophoresis prior to blotting onto a nitrocellulose membrane and staining with an antibody specific for the protein under study (acetylated histone H3) and a control protein (β-actin). As HDAC inhibitors reduce deacetylase activity, treatment of intact cells results in the accumulation of acetylated histones.

[4] = test system: MCF7 (breast cancer) tumours; test: MCF7 xenograft study in nude mice; type: in vivo; conditions: 15 day treatment, FIG. 6
Protocol: Xenograft studies were carried out with MCF7 cells implanted under the skin on the flank of female nude mice (5-8 weeks of age). […] Animals also received a 2 mg oestrogen pellet as an implant on the day of tumour implantation. Tumour volumes were determined from measurements of 2 diameters carried out every other day out to day 15 of treatment.

[5] = test system: HDAC activity in intact CEM cells; test: Whole cell HDAC activity assay (MAL) in intact CEM cells; type: cell-based; conditions: FIG. 2, read-out: HDAC inhibitory values in intact CEM cells
Protocol: Cells were then rapidly washed at 4° C., lysed by sonication, the reaction stopped with acetonitrile, and MAL and the deacetylated product determined in the supernatant by rapid HPLC.
as §1, §2

CEM (leukaemic) cells = test: Cell viability / cytotoxic activity, ATP Vialite assay, CEM cells; type: cell-based; conditions: Homo sapiens, CCRF-CEM
Protocol: (§3) EC50 values for percentage viability (3-day exposure) were determined using 2 different methods, trypan blue staining and an ATP assay. Trypan blue staining relies on the ability of healthy cells with intact membranes to exclude dyes. As cells start to undergo programmed cell death membrane integrity becomes compromised allowing dye entry. The % cells staining positive for trypan blue relative to the total cell number therefore reflects % cell viability (% viability). Non-viable cells also lose the ability to regenerate ATP. A specific ATP assay procedure using a 96-well plate-based approach (Vialite assay, Cambrex, UK) also measures cell viability, expressed relative to the ATP value in the control (untreated) cell population.
Effects against viable cell number have been determined using the ATP Vialite kit method (Cambrex, UK).

[6] = test system: HCT116 (colorectal cancer) cells; test: Cell viability, 3-day exposure, HCT116 cells; type: cell-based; conditions: Homo sapiens, HCT-116, 72 h, 3 day incubation, FIG. 3
Protocol: as §3

[7] = test system: MCF7 (breast cancer) cells; test: Cell viability, 3-day exposure, MCF7 cells; type: cell-based; conditions: Homo sapiens, 72 h, 3 day incubation, FIG. 3
Protocol: as §3

[8] = test system: panel of 8 lymphoma cell lines; test: Cell viability (ATP) in a panel of 8 lymphoma cell lines; type: cell-based; conditions: ATP endpoint assay, read-out: EC50 values (range over the panel)
Protocol: as §3

[9] = cell-free HDACs isolated from rat liver, HPLC method, different liver preparation than Example 1, read-out: HDAC inhibitory IC50

IC50 [1, 9]: 44600 ± 5600 nM | IC50 [2]: 46100 ± 12000 nM
SMILES: Cc1nsc(C(CCCCCC(=N)NO)C(=O)Nc2ccccc2)n1 (stereo not drawn) [67022,19, 7-(N-Hydroxycarbamimidoyl)-2(3-methyl[1,2,4]thiadiazol-5-yl)heptanoic Acid Phenylamide]

IC50 [1, 9]: 318000 nM
SMILES: Cc1nsc(C(CCCCCC(N)=S)C(=O)Nc2ccccc2)n1 (stereo not drawn) [67022,20, 2-(3-Methyl-[1,2,4]thiadiazol-5-yl)-7-thiocarbamoylheptanoic Acid Phenylamide]

SMILES: O=C(CCCCCCC(=O)Nc1ccccc1)NO [SAHA, suberoylanilide hydroxamic acid, reference compound]
histone H3 acetylation with time ([3]; 3 μM SAHA, time periods up to 48 hours): acetylation increased up to 6 hours, but had decreased to baseline levels by 24 hours | change in histone H3 acetylation [3]: relatively minor changes in acetylation state at concentrations <1.0 μM | effect on tumour growth ([4]; daily IP 25 mg/kg in DMSO): not very different to treatment with the DMSO vehicle alone

IC50 [1, 9]: 40 ± 9 nM | IC50 ([1]; partially purified rat liver preparation, Example 1, FIG. 1, read-out: HDAC inhibitory activity IC50): 50 ± 10 nM | IC50 [5]: 110 ± 20 nM | EC50 [6]: 70 nM | EC50 [7]: 130 nM | EC50 [8]: 20 to 80 nM | IC50 [2]: 86 ± 7 nM
SMILES: O=C(CCCCCC(C(=O)Nc1ccccc1)C(=O)Nc1ccccc1)NO [UCL67022, 2-Phenylcarbamoyl-octanedioic acid 8-hydroxyamide 1-phenylamide]
EC50 (CEM (leukaemic) cells; 72 h, CEM cells, 3 day incubation, FIG. 3): 60 nM | IC50 (CEM (leukaemic) cells; cytotoxic activity against CEM (leukaemic) cells, viable cell number, ATP Vialite kit, read-out: HDAC inhibitory IC50): 98 ± 42 nM | histone H3 acetylation with time ([3]; 0.3 μM UCL67022, time periods up to 48 hours): acetylation continued to increase out to 24 hours, and was still substantially higher than baseline at 48 hours | change in histone H3 acetylation [3]: marked change in histone H3 acetylation at concentrations as low as 0.1 μM | effect on tumour growth ([4]; daily IP dose levels 12.5·M and 6.25·M): appeared to have a clear effect on tumour growth

Source: patent publication US8110577B2, “Histone deacetylase inhibitors” (Queen Mary & Westfield College, priority 2006, dated 2012)
